Experimental data published in paper PMC4501006, “Preliminary Characterization and In Vivo Studies of Structurally Identical ^18F- and ^125I-Labeled Benzyloxybenzenes for PET/SPECT Imaging of β-Amyloid Plaques” (Scientific Reports, 2015).

Columns and labels:
[1] = In vivo biodistribution in normal ICR mice; conditions: i.v.
Description: Histograms of brain and intestine uptake were presented in Fig. 6 for comparison, while detailed data concerning the in vivo biodistribution in normal ICR mice were collected in Table S3 in Supplementary information. […] [^125I]7a and [^125I]12a were rapidly cleared from the normal brain, with only small amounts of radioactivity remaining at 60 min post-injection (0.55% ID/g for [^125I]7a and 0.37% ID/g for [^125I]12a). […] In addition, no significant deiodination was observed (less than 0.5% ID in the thyroid at 60 min).
As the specific activity of ^18F-labeled ligands (about 60 GBq/μmol) was slightly lower than that of corresponding no-carrier-added ^125I-labeled ligands (81 GBq/μmol), the impact of specific activity on pharmacokinetics was studied. In vivo biodistribution of radioactivity after injection of carrier-added [^125I]7a with equal specific activity to corresponding [^18F]7a (60 GBq/μmol) was conducted in normal ICR mice through the same procedure.
A structural model of an Aβ fiber (PDB ID: 2LMO) derived from solid state NMR was downloaded from the RCSB Protein Data Bank (www.rcsb.org/pdb). Geometric optimization was performed using Gaussian 09 at the B3LYP/6–31 G and 3-21G levels in the water phase. Molecular docking was performed using AutoDock4.0, and the docking results were graphed with VMD 1.9.1 software. SYBYL-X 1.1 software was used to predict the binding affinities with previously constructed 3D-QSAR models. All reagents for chemical synthesis were used as purchased without further purification. [^125I]NaI was purchased from PerkinElmer and ^18F^– was kindly provided by the Chinese PLA General Hospital. ^1H and ^13C NMR spectra were recorded on a Bruker Avance III NMR spectrometer (400 MHz for ^1H; 101 MHz for ^13C) in CDCl3 or DMSO-d6 solutions at room temperature. Mass spectra were acquired with a GCT CA127 Micronass UK instrument. X-ray crystallographic data of compound 12a were collected on a Bruker Smart APEX II diffractometer (Bruker Co., Germany) and deposited at the Cambridge Crystallographic Data Centre as supplementary publication (no. CCDC 1063679). HPLC analysis was performed on a Shimadzu SCL-20 AVP equipped with a Bioscan Flow Count 3200 NaI/PMT γ-radiation scintillation detector and a SPD-20A UV detector, λ = 254 nm. A Venusil MP C18 reverse phase column (Agela Technologies, 5 μm, 4.6 × 250 mm) was used for separations and purity determinations with a binary gradient system (acetonitrile: water = 80%: 20%) at a 1.0 mL/min flow rate. Fluorescent observation was performed on the Axio Observer Z1 inverted fluorescence microscope (Zeiss, Germany) equipped with a DAPI filter set (excitation, 405 nm). Post-mortem brain sections from an autopsy-confirmed AD subject and a control subject were acquired from the Chinese Brain Bank. Transgenic mice (APPswe/PSEN1, male) and wild-type mice (C57BL6, male) were purchased from the Institute of Laboratory Animal Science, Chinese Academy of Medical Sciences. Normal ICR mice (20–22 g, male) were used for in vivo biodistribution, dynamic PET/CT and SPECT/CT scans, and biostability experiments. All experiments on mice were performed in accordance with the guidelines approved by the animal care committee of Beijing Normal University and Xiamen University.

[2] = Partition coefficient determination (log D); assay type: physicochemical
Description: An ideal Aβ imaging probe would combine a high binding affinity to Aβ plaques and excellent pharmacokinetics with high initial brain uptake and rapid washout from normal brain regions. Thus, the partition coefficients of these four radiolabeled ligands were determined to estimate their ability to penetrate the BBB.

[18F]CCOc1ccc(COc2ccc(I)cc2)cc1 [[^18F]12a]
brain2 min/brain60 min ratio [1]: 1.6
Biodistribution of radioactivity, blood ([1]; 2 min): 7.53 ± 0.80 % injected dose per gram
Biodistribution of radioactivity, bone ([1]; 2 min): 2.55 ± 0.29 % injected dose per gram
Biodistribution of radioactivity, brain ([1]; 2 min): > 5 % injected dose per gram
Biodistribution of radioactivity, heart ([1]; 2 min): 9.11 ± 1.07 % injected dose per gram
Biodistribution of radioactivity, intestine ([1]; 2 min): 7.72 ± 0.54 % injected dose per organ
Biodistribution of radioactivity, kidney ([1]; 2 min): 11.63 ± 0.86 % injected dose per gram
Biodistribution of radioactivity, liver ([1]; 2 min): 13.20 ± 1.45 % injected dose per gram
Biodistribution of radioactivity, lung ([1]; 2 min): 9.17 ± 1.10 % injected dose per gram
Biodistribution of radioactivity, muscle ([1]; 2 min): 5.38 ± 0.47 % injected dose per gram
Biodistribution of radioactivity, pancreas ([1]; 2 min): 8.75 ± 0.33 % injected dose per gram
Biodistribution of radioactivity, spleen ([1]; 2 min): 4.98 ± 0.32 % injected dose per gram
Biodistribution of radioactivity, stomach ([1]; 2 min): 1.70 ± 0.08 % injected dose per organ
Biodistribution of radioactivity, brain ([1]; 2 min, listed as [18F]12a): 6.76 ± 0.41 % injected dose per gram
Biodistribution of radioactivity, blood ([1]; 10 min): 4.55 ± 0.36 % injected dose per gram
Biodistribution of radioactivity, bone ([1]; 10 min): 2.13 ± 0.27 % injected dose per gram
Biodistribution of radioactivity, brain ([1]; 10 min): 5.73 ± 0.44 % injected dose per gram
Biodistribution of radioactivity, heart ([1]; 10 min): 4.40 ± 0.36 % injected dose per gram
Biodistribution of radioactivity, intestine ([1]; 10 min): 6.94 ± 0.53 % injected dose per organ
Biodistribution of radioactivity, kidney ([1]; 10 min): 6.19 ± 0.46 % injected dose per gram
Biodistribution of radioactivity, liver ([1]; 10 min): 4.74 ± 0.36 % injected dose per gram
Biodistribution of radioactivity, lung ([1]; 10 min): 4.91 ± 0.60 % injected dose per gram
Biodistribution of radioactivity, muscle ([1]; 10 min): 3.92 ± 0.41 % injected dose per gram
Biodistribution of radioactivity, pancreas ([1]; 10 min): 3.96 ± 0.27 % injected dose per gram
Biodistribution of radioactivity, spleen ([1]; 10 min): 3.55 ± 0.26 % injected dose per gram
Biodistribution of radioactivity, stomach ([1]; 10 min): 1.54 ± 0.32 % injected dose per organ
Biodistribution of radioactivity, blood ([1]; 30 min): 5.91 ± 0.33 % injected dose per gram
Biodistribution of radioactivity, bone ([1]; 30 min): 3.31 ± 0.21 % injected dose per gram
Biodistribution of radioactivity, brain ([1]; 30 min): 5.02 ± 0.32 % injected dose per gram
Biodistribution of radioactivity, heart ([1]; 30 min): 5.41 ± 0.36 % injected dose per gram
Biodistribution of radioactivity, intestine ([1]; 30 min): 8.09 ± 0.43 % injected dose per organ
Biodistribution of radioactivity, kidney ([1]; 30 min): 6.19 ± 0.37 % injected dose per gram
Biodistribution of radioactivity, liver ([1]; 30 min): 4.84 ± 0.28 % injected dose per gram
Biodistribution of radioactivity, lung ([1]; 30 min): 5.34 ± 0.31 % injected dose per gram
Biodistribution of radioactivity, muscle ([1]; 30 min): 4.71 ± 0.50 % injected dose per gram
Biodistribution of radioactivity, pancreas ([1]; 30 min): 4.55 ± 0.36 % injected dose per gram
Biodistribution of radioactivity, spleen ([1]; 30 min): 4.29 ± 0.36 % injected dose per gram
Biodistribution of radioactivity, stomach ([1]; 30 min): 2.09 ± 0.32 % injected dose per organ
Biodistribution of radioactivity, blood ([1]; 60 min): 5.87 ± 0.19 % injected dose per gram
Biodistribution of radioactivity, bone ([1]; 60 min): 3.51 ± 0.78 % injected dose per gram
Biodistribution of radioactivity, brain ([1]; 60 min): 4.26 % injected dose per gram
Biodistribution of radioactivity, heart ([1]; 60 min): 4.76 ± 0.40 % injected dose per gram
Biodistribution of radioactivity, intestine ([1]; 60 min): 8.50 ± 1.23 % injected dose per organ
Biodistribution of radioactivity, kidney ([1]; 60 min): 5.48 ± 0.41 % injected dose per gram
Biodistribution of radioactivity, liver ([1]; 60 min): 4.64 ± 0.21 % injected dose per gram
Biodistribution of radioactivity, lung ([1]; 60 min): 5.19 ± 0.36 % injected dose per gram
Biodistribution of radioactivity, muscle ([1]; 60 min): 4.51 ± 0.49 % injected dose per gram
Biodistribution of radioactivity, pancreas ([1]; 60 min): 3.95 ± 0.25 % injected dose per gram
Biodistribution of radioactivity, spleen ([1]; 60 min): 3.87 ± 0.34 % injected dose per gram
Biodistribution of radioactivity, stomach ([1]; 60 min): 1.70 ± 0.29 % injected dose per organ
Biodistribution of radioactivity, brain ([1]; 60 min, listed as [18F]12a): 4.26 ± 0.18 % injected dose per gram
logD [2]: 3.84 ± 0.07
